Columns and labels:
[1] = test system: barnyardgrass; experiment: Test A preemergence; assay type: in vivo, Echinochloa crus-galli
Summary of the method: (§1)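 Greenhouse test in loam soil/sand blend; compounds formulated in non-phytotoxic solvent with surfactant, applied as preemergence directed soil spray or postemergence to plants 2–10 cm tall at one- to two-leaf stage. Injury rated visually versus untreated controls after approximately 10 days on a 0 (no effect) to 100 (complete control) scale.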

[2] = test system: crabgrass, large; experiment: Test A preemergence; assay type: in vivo, Digitaria sanguinalis
Summary of the method: as §1

[3] = test system: foxtail, giant; experiment: Test A preemergence; assay type: in vivo, Setaria faberii
Summary of the method: as §1

[4] = test system: morningglory; experiment: Test A preemergence; assay type: in vivo, Ipomoea spp.
Summary of the method: as §1

[5] = test system: pigweed; experiment: Test A preemergence; assay type: in vivo, Amaranthus retroflexus
Summary of the method: as §1

[6] = test system: velvetleaf; experiment: Test A preemergence; assay type: in vivo, Abutilon theophrasti
Summary of the method: as §1

[7] = test system: wheat; experiment: Test A preemergence; assay type: in vivo, Triticum aestivum; settings: preemergence
Summary of the method: as §1

[8] = test system: corn; experiment: Test A preemergence; assay type: in vivo, Zea mays
Summary of the method: as §1

[9] = test system: barnyardgrass; experiment: Test A postemergence; assay type: in vivo, Echinochloa crus-galli
Summary of the method: as §1

[10] = test system: crabgrass, large; experiment: Test A postemergence; assay type: in vivo, Digitaria sanguinalis
Summary of the method: as §1

[11] = test system: foxtail, giant; experiment: Test A postemergence; assay type: in vivo, Setaria faberii
Summary of the method: as §1

[12] = test system: morningglory; experiment: Test A postemergence; assay type: in vivo, Ipomoea spp.
Summary of the method: as §1

[13] = test system: pigweed; experiment: Test A postemergence; assay type: in vivo, Amaranthus retroflexus
Summary of the method: as §1

[14] = test system: velvetleaf; experiment: Test A postemergence; assay type: in vivo, Abutilon theophrasti
Summary of the method: as §1

[15] = test system: wheat; experiment: Test A postemergence; assay type: in vivo, Triticum aestivum
Summary of the method: as §1

[16] = test system: corn; experiment: Test A postemergence; assay type: in vivo, Zea mays
Summary of the method: as §1

[17] = test system: rice; experiment: Test C flooded paddy test; assay type: in vivo, Oryza sativa; settings: Flood
Summary of the method: (§2)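 In-water treatment: compound dosed into 3 cm flood over soil, water level unchanged throughout. Controls run alongside; visual assessment at day 13–15.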

[18] = test system: sedge, umbrella; experiment: Test C flooded paddy test; assay type: in vivo, Cyperus difformis; settings: Flood
Summary of the method: as §2

[19] = test system: ducksalad; experiment: Test C flooded paddy test; assay type: in vivo, Heteranthera limosa; settings: Flood
Summary of the method: as §2

[20] = test system: barnyardgrass; experiment: Test C flooded paddy test; assay type: in vivo, Echinochloa crus-galli; settings: Flood
Summary of the method: as §2

[21] = test system: rice; experiment: Test B flood; assay type: in vivo, Oryza sativa; settings: 250 g ai/ha, visual rating on 0 to 100 scale (0 no effect, 100 complete control), 13 to 15 days
Summary of the method: (§3)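 Flooded-pot test: compound dosed into 3 cm of standing water above soil when plants had two leaves. Visual control ratings (0–100) versus untreated plants after 13–15 d.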

[22] = test system: sedge, umbrella; experiment: Test B flood; assay type: in vivo, Cyperus difformis; settings: 250 g ai/ha, visual rating on 0 to 100 scale (0 no effect, 100 complete control), 13 to 15 days
Summary of the method: as §3

[23] = test system: ducksalad; experiment: Test B flood; assay type: in vivo, Heteranthera limosa; settings: 250 g ai/ha, visual rating on 0 to 100 scale (0 no effect, 100 complete control), 13 to 15 days
Summary of the method: as §3

[24] = test system: barnyardgrass; experiment: Test B flood; assay type: in vivo, Echinochloa crus-galli; settings: 250 g ai/ha, visual rating on 0 to 100 scale (0 no effect, 100 complete control), 13 to 15 days
Summary of the method: as §3

[25] = Preemergence, 500 g ai/ha, 0 to 100 scale, 0 no effect, 100 complete control
[26] = preemergence, 125 g ai/ha, visual injury, 0 to 100 scale, approx. 10 days
[27] = 125 g ai/ha, visual injury, 0 to 100 scale, approx. 10 days
[28] = 500 g ai/ha, visual injury after approx. 10 days, 0 to 100 scale (0 no effect, 100 complete control)
[29] = Postemergence, 500 g ai/ha, visual rating after approx. 10 days, 0 to 100 scale (0 no effect, 100 complete control)
[30] = postemergence, 125 g ai/ha, about 10 days, visual rating on 0 to 100 scale (0 no effect, 100 complete control)
[31] = 31 g ai/ha, scale 0 to 100 (0 no effect, 100 complete control)
[32] = 62 g ai/ha, scale 0 to 100 (0 no effect, 100 complete control)
[33] = preemergence, 500 g ai/ha, visual injury after approx. 10 days, 0 to 100 scale (0 no effect, 100 complete control)

CCONC(=O)c1cc(C)n(Cc2cccc(OC(F)(F)F)c2)n1 [Compound 73]
10: Morningglory plant response rating [4, 26] | Velvetleaf plant response rating [6, 26]
60: Barnyardgrass plant response rating [1, 25] | Foxtail, Giant plant response rating [3, 25] | Velvetleaf plant response rating [6, 25] | Crabgrass, Large plant response rating [10, 29]
0: Wheat plant response rating [7, 27] | Wheat plant response rating [15, 30] | Plant response rating, Rice [17, 31] | Plant response rating, Rice [17, 32] | Plant response rating, Rice ([17]; 125 g ai/ha, scale 0 to 100) | Plant response rating, Rice ([17]; 250 g ai/ha, scale 0 to 100) | Plant response rating, Sedge, Umbrella [18, 31] | Plant response rating, Sedge, Umbrella [18, 32] | Plant response rating, Sedge, Umbrella ([18]; 125 g ai/ha, scale 0 to 100) | Plant response rating, Ducksalad [19, 31] | Plant response rating, Barnyardgrass [20, 31] | Plant response rating, Barnyardgrass [20, 32] | Plant response rating, Barnyardgrass ([20]; 125 g ai/ha, scale 0 to 100) | Plant response rating, Barnyardgrass ([20]; 250 g ai/ha, scale 0 to 100)
70: Barnyardgrass plant response rating [9, 29] | Foxtail, Giant plant response rating [11, 29] | Pigweed plant response rating [13, 30]
40: Barnyardgrass plant response rating ([9]; Postemergence, 125 g ai/ha, 0 to 100 scale, 0 no effect, 100 complete control) | Crabgrass, Large plant response rating [10, 30] | Foxtail, Giant plant response rating [11, 30] | Morningglory plant response rating [12, 29] | Wheat plant response rating [15, 29] | Corn plant response rating [16, 30]
45: Plant response rating, Ducksalad ([19]; 125 g ai/ha, scale 0 to 100)
50: Barnyardgrass plant response rating [1, 26] | Crabgrass, Large plant response rating [2, 25] | Corn plant response rating [8, 25]
80: Wheat plant response rating [7, 28] | Velvetleaf plant response rating [14, 29] | Corn plant response rating [16, 29]
100: Pigweed plant response rating [5, 25]
30: Crabgrass, Large plant response rating [2, 26] | Foxtail, Giant plant response rating [3, 26] | Morningglory plant response rating [4, 25] | Corn plant response rating [8, 26] | Morningglory plant response rating [12, 30] | Velvetleaf plant response rating [14, 30] | Plant response rating, Sedge, Umbrella ([18]; 250 g ai/ha, scale 0 to 100)
55: Plant response rating, Ducksalad ([19]; 250 g ai/ha, scale 0 to 100)
90: Pigweed plant response rating [5, 26] | Pigweed plant response rating [13, 29]
20: Plant response rating, Ducksalad [19, 32]

CCc1cc(C(=O)NCC(F)(F)F)nn1Cc1ccnc(OCC(F)(F)F)c1 [Compound 106]
20: Corn plant response rating [8, 26] | Plant response rating, Rice [21] | Plant response rating, Barnyardgrass ([20]; 125 g ai/ha, scale 0 to 100)
40: Velvetleaf plant response rating [14, 30] | Wheat plant response rating [15, 29] | Plant response rating, Ducksalad [19, 31]
50: Barnyardgrass plant response rating [1, 26] | Barnyardgrass plant response rating [9, 30] | Crabgrass, Large plant response rating [10, 30] | Foxtail, Giant plant response rating [11, 30] | Morningglory plant response rating [12, 30] | Plant response rating, Ducksalad [19, 32]
60: Corn plant response rating [16, 29]
70: Velvetleaf plant response rating [14, 29] | Plant response rating, Sedge, Umbrella [18, 31] | Plant response rating, Ducksalad ([19]; 125 g ai/ha, scale 0 to 100) | Plant response rating, Ducksalad ([19]; 250 g ai/ha, scale 0 to 100)
85: Plant response rating, Sedge, Umbrella [18, 32]
10: Velvetleaf plant response rating [6, 26] | Wheat plant response rating [7, 27] | Wheat plant response rating [15, 30]
30: Morningglory plant response rating [4, 26] | Wheat plant response rating [7, 28] | Corn plant response rating [8, 33] | Corn plant response rating [16, 30] | Plant response rating, Barnyardgrass [24] | Plant response rating, Barnyardgrass ([20]; 250 g ai/ha, scale 0 to 100)
0: Plant response rating, Rice [17, 31] | Plant response rating, Rice [17, 32] | Plant response rating, Rice ([17]; 125 g ai/ha, scale 0 to 100) | Plant response rating, Rice ([17]; 250 g ai/ha, scale 0 to 100) | Plant response rating, Barnyardgrass [20, 31] | Plant response rating, Barnyardgrass [20, 32]
98: Plant response rating, Sedge, Umbrella ([18]; 250 g ai/ha, scale 0 to 100)
95: Plant response rating, Sedge, Umbrella ([18]; 125 g ai/ha, scale 0 to 100)
100: Barnyardgrass plant response rating [1, 33] | Crabgrass, Large plant response rating [2, 26] | Crabgrass, Large plant response rating [2, 33] | Foxtail, Giant plant response rating [3, 26] | Foxtail, Giant plant response rating [3, 33] | Morningglory plant response rating [4, 33] | Pigweed plant response rating [5, 26] | Pigweed plant response rating [5, 33] | Velvetleaf plant response rating [6, 33] | Morningglory plant response rating [12, 29] | Pigweed plant response rating [13, 29]
80: Barnyardgrass plant response rating [9, 29] | Foxtail, Giant plant response rating [11, 29]
90: Crabgrass, Large plant response rating [10, 29] | Pigweed plant response rating [13, 30] | Plant response rating, Sedge, Umbrella [22] | Plant response rating, Ducksalad [23]
